According to patent US12433836B2, “Parenterally administered immune enhancing drugs” (ARCUS BIOSCIENCES, INC., priority 2018, dated 2025):
Where two headings read alike, the source gives them in different places.

Experiments:
[1] = Pharmacokinetics in preclinical species, summary across species; type: in vivo, mice, rats, dogs, monkeys; settings: single IV dose; for clearance (CL), in words: all preclinical species; for half-life: both sexes, CD-1 (mouse), Sprague-Dawley (rat), beagle (dog), mouse, rat, dog, cynomolgus monkey, plasma, range over preclinical species, read-out: terminal half-lives; for volume of distribution at steady state, in words: mice, rats and monkeys
Description: Plasma samples were prepared by protein precipitation. […] The mixture was vortexed and then centrifuged.
Compound 1 and Compound 2 volume of distribution at steady (Vu) was low in mice, rats and monkeys, but moderate-to-high in dogs. The terminal half-lives (Ti2) of Compound 1 and Compound 2 ranged from 3.5 to 41 hours, and 6.5 to 34 hours, respectively.

[2] = Pharmacokinetics after single IV bolus dose in mice
Description: (§1) At the designated time points, blood was collected into tubes containing potassium EDTA and stored on ice until processed by centrifugation. The resultant plasma was stored in a freezer maintained at approximately −80° C.
(§2) Plasma samples were prepared by protein precipitation. An aliquot of 30 to 50 μL sample was mixed with acetonitrile containing an internal standard. The mixture was vortexed and then centrifuged. The resultant supernatant was directly analyzed by a sensitive and specific analytical procedure. Analytes were separated by liquid chromatography (LC), and detected by tandem mass spectrometry (MS/MS). The lower limit of quantitation (LLOQ) was 1.0 to 5.0 ng/mL.

[3] = Pharmacokinetics after single IV bolus dose in monkeys
Description: as §1, §2

[4] = Pharmacokinetics after single IV bolus dose in rats
Description: as §1, §2

[5] = Pharmacokinetics after single IV bolus dose in dogs; settings: for CL: Dog, single dose IV bolus, mean noncompartmental; for volume of distribution at steady state, in words: dogs, single IV dose; for Vd / half-life: male, beagle, dog, iv
Description: as §1, §2

[6] = test system: squamous cell carcinoma of the head and neck; settings: recurrent or metastatic squamous cell carcinoma of the head and neck; cited from earlier work
bladder cancer = settings: cited from earlier work
[7] = female, CD-1, mouse, in vivo, iv
[8] = Monkey, single dose IV bolus, mean noncompartmental
[9] = Rat, single dose IV bolus, mean noncompartmental
[10] = male, Sprague-Dawley, rat, plasma, iv
[11] = female, CD-1, mouse, plasma, iv
[12] = male, cynomolgus monkey, plasma, iv

Molecule: C[C@H](Nc1cc(Cl)nc2c1cnn2[C@@H]1O[C@H](COP(=O)(O)CP(=O)(O)O)[C@@H](O)[C@H]1O)c1ccc(F)cc1 [Compound 2]
- clearance (CL), in words [1]: low
- half-life [1]: 390 to 2040 min
- volume of distribution at steady state, in words [1]: low
- Vd [2, 7]: 0.11 L/kg
- clearance [2, 7]: 0.25 mL/min/kg
- half-life [2, 7]: 390 min
- CL [3, 8]: 1.7 mL/h/kg
- T1/2 [3, 8]: 34 h
- Vd ([3]; male, cynomolgus monkey, in vivo, iv): 0.078 L/kg
- T1/2 [4, 9]: 9.6 h
- Vd ([4]; male, Sprague-Dawley, rat, in vivo, iv): 0.12 L/kg
- clearance [4, 10]: 0.155 mL/min/kg
- CL [5]: 0.034 L/h/kg
- volume of distribution at steady state, in words [5]: moderate-to-high
- Vd ([5]; in vivo): 0.63 L/kg
- half-life ([5]; in vivo): 900 min

Molecule: nivolumab: PD-1 blocking antibody
- estimated 1-year survival rate versus standard chemotherapy [6]: more than two-fold higher

Molecule: atezolizumab: the first approved anti-PD-L1 therapy
- response rate (bladder cancer; all patients): 15%
- response rate (bladder cancer; patients with more PD-L1-positive immune cells): 27%

Molecule: C[C@H](Nc1cc(Cl)nc2c1cnn2[C@@H]1O[C@H](COP(=O)(O)CP(=O)(O)O)[C@@H](O)[C@H]1O)c1ccccc1F [Compound 1]
- clearance (CL), in words [1]: low
- half-life [1]: 210 to 2460 min
- volume of distribution at steady state, in words [1]: low
- CL ([2]; Mouse, single dose IV bolus, mean noncompartmental): 0.025 L/h/kg
- Vd [2, 11]: 0.12 L/kg
- half-life [2, 11]: 210 min
- CL [3, 8]: 2.5 mL/h/kg
- Vd [3, 12]: 0.097 L/kg
- half-life [3, 12]: 2460 min
- CL [4, 9]: 0.020 L/h/kg
- T1/2 [4, 9]: 5.3 h
- Vd [4, 10]: 0.12 L/kg
- CL [5]: 0.050 L/h/kg
- volume of distribution at steady state, in words [5]: moderate-to-high
- Vd ([5]; plasma): 1.3 L/kg
- half-life ([5]; plasma): 1260 min
